# Measurements taken from US20260027131A1, “PRODRUGS, PRODRUG COMPOSITIONS AND RELATED METHODS” (Praesidia Biotherapeutics Inc., priority 2022, published 2026).
# Where “and” joins values, the source holds several entries; their conditions need not be identical. Equal entries are not always repeated.
# How the values were obtained:
# [1] = biological target: DPP4 (Homo sapiens, UniProt P27487); test: in vitro; conditions: recombinant enzyme
# Description: Aliquots were withdrawn at 0, 60 and 120 minutes from the reaction mixture and quenched with 20-volumes of cold acetonitrile. […] Glycine-proline p-nitroanilide was used as a positive control for this assay.
# [2] = Rat plasma stability; type: in vitro ADME; conditions: rat; for half-life at 5 μM: plasma
# Description: Rat and human plasma were obtained from qualified vendors. […] The assay was performed in duplicate.
# [3] = Human plasma stability
# Description: (§1) Rat and human plasma were obtained from qualified vendors. 5 μL of 500 μM of the test article solution was added to 495 μL of pre-incubated human or rat plasma to reach a final concentration of 5 μM. The final concentration of organic solvents was not more than 0.5%. The assay was performed in duplicate. The reaction samples were incubated in a 37° C. water bath with shaking at approximately 60 rpm. 50 μL of the reaction samples were collected at 0, 30, 60, 120 and 180 minutes. The reaction was stopped by adding 300 μL of room temperature quench solution (acetonitrile containing internal standards (IS, 200 nM labetalol, 100 nM alprazolam and 2 μM ketoprofen)). The samples were vortexed for 5 minutes followed by centrifugation of the samples at 3,220 g for 30 minutes at room temperature to precipitate the protein. 100 μL of the supernatant was transferred to a new plate and diluted with 100 μL or 200 μL water according to the LC/MS signal response and peak shape. The samples were mixed well and analyzed using LC/MS/MS. The remaining percentage of parent drug versus reaction time was used to calculate the t1/2 value.
# [4] = in vitro; conditions: human, plasma
# Description: as §1
# [5] = Chemical stability at pH 4.5 and pH 7.4 in PBS; type: physicochemical; conditions: for Chemical Stability, pH 4.5: PBS pH 4.5, 37° C.; for Chemical Stability, pH 4.5 / Chemical Stability, pH 7.4: 5 μM, up to 240 min; for Chemical Stability, pH 7.4: PBS pH 7.4, 37° C.
# Description: The assay was performed in duplicate. […] Samples were incubated at 37° C. at 600 rpm.
# [6] = Metabolic stability in rat liver microsomes; type: in vitro ADME; conditions: rat, microsomes, 1 μM
# Description: Rat liver microsomes were obtained from qualified vendors and metabolic stability of the test compound was determined at 1 μM. The compound was incubated at 37° C. with 0.5 mg microsome/mL in the buffer in the presence of 1 mM NADPH. Aliquots of 50 μL were taken from the reaction solution at 0, 15, 30, 45 and 60 minutes. […] All samples were analyzed in duplicates.
# [7] = Pharmacokinetic studies in rats: plasma and lung; conditions: rat, in vivo, iv
# Description: Six to eight weeks old Sprague-Dawley rats were procured from a qualified provider. Test compounds were introduced in rats by a single intravenous administration. […] Blood samples (0.1, 0.2 or 0.5 mL) were collected with a 1 mL syringe containing anticoagulants K2EDTA. Blood samples were centrifuged to obtain plasma for analysis. […] After collection at each time point, lung samples were frozen at −75° C. Prior to analysis, a portion of lung sample was weighed and homogenized with phosphate buffer saline. […] Data analysis and pharmacokinetic parameters were generated using WinNonlin software.
# [8] = system: Caco-2 cell monolayers
# Description: CaCO-2 cells were cultured, and a monolayer was developed in-house in 96 well-plates over 18 days using standard protocol. The monolayer was tested for the integrity of the cell monolayer before using.
# Test compounds were added to the transwell insert (apical compartment) to determine the rate of drug transport in the apical to basolateral direction. To determine the rate of drug transport in the basolateral to apical direction, the test compound was added to the receiver plate wells (basolateral compartment). Appropriate amount of HBSS (10 mM HEPES, pH 7.4) was added in both compartments for a final volume of 200 μL. The plates were incubated at 37° C. with shaking at 150 rpm on a rotary shaker for 2 hours. At the end of the transport period, 50 μL from the apical and basolateral wells were collected and 4 volume of cold acetonitrile containing internal standards (IS: 100 nM alprazolam, 200 nM labetalol, and 2 μM ketoprofen) was added to each sample to terminate the reaction. The samples were vortexed and centrifuged at 3,800 g for 20 minutes. An aliquot of 150 μL of the supernatant was used for LC/MS/MS analysis. All samples were analyzed in duplicates. Samples were analyzed through LC/MS/MS for estimating the permeability and efflux of the compounds across Caco-2 cell monolayers.
# [9] = biological target: T1, Glucocorticoid receptor (GR) (Homo sapiens, UniProt P04150); test: TR-FRET GR competitive binding assay; conditions: 0.1 μM
# T1 sequence (P04150 1-777): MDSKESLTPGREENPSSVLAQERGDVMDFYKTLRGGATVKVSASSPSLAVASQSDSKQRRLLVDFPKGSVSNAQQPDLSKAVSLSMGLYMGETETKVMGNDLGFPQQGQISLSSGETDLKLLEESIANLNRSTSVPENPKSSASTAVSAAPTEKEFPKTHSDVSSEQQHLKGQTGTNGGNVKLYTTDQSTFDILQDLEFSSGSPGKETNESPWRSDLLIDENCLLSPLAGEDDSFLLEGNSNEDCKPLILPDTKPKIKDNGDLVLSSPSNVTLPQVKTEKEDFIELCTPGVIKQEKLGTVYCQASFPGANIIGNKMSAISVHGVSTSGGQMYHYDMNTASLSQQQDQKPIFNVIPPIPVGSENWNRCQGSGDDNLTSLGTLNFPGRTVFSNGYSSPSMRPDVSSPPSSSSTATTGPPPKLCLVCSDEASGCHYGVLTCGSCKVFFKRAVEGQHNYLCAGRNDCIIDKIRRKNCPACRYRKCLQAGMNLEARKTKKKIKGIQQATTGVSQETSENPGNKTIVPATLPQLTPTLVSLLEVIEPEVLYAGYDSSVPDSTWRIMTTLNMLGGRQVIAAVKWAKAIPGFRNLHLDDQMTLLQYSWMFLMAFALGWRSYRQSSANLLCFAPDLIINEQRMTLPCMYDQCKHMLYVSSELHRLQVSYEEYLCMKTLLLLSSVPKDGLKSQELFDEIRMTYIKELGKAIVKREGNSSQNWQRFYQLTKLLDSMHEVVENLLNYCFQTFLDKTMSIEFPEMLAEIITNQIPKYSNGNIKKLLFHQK
# Description: Glucocorticoid receptor (GR) binding of prodrugs was determined using TR-FRET GR competitive binding assay. Three-point (0.1, 1 and 10 μM) binding was evaluated for each prodrug.
# [10] = read-out: Rat Plasma Stability t½
# Chain of DPP4 (P27487 whole entry, species assumed): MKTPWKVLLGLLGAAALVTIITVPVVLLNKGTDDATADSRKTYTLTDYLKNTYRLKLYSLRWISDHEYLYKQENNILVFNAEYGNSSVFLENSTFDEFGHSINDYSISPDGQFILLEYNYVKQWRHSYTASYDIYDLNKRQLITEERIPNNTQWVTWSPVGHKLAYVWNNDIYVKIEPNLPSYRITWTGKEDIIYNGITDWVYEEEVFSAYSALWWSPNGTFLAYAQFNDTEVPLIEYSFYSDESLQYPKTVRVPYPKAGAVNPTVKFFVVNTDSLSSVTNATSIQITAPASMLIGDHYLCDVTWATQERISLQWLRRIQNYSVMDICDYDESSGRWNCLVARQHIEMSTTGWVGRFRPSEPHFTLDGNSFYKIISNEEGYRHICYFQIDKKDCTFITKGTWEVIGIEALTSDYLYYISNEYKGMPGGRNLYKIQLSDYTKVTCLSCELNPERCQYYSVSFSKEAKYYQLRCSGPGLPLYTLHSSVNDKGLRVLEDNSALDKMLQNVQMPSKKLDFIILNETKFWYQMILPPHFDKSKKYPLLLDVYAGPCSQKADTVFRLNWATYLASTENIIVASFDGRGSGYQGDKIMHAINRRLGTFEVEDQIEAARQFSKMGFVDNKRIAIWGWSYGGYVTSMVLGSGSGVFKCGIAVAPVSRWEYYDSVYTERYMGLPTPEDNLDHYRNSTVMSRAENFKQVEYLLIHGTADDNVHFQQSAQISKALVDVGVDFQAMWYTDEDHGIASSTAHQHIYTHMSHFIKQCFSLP
SMILES,half-life at 5 μM [2] [h],half-life at 5 μM [4] [h],further results
CC(C)[C@H](NC(=O)[C@@H]1CCCN1C(=O)CN)C(=O)Nc1ccc(C(=O)OCC(=O)[C@@]2(O)[C@H](C)C[C@H]3[C@@H]4CCC5=CC(=O)C=C[C@]5(C)[C@@]4(F)[C@@H](O)C[C@@]32C)cc1 [Compound 3],,,half-life at 10 μM [1]: 2.53 h
C[C@@H]1C[C@H]2[C@@H]3CCC4=CC(=O)C=C[C@]4(C)[C@@]3(F)[C@@H](O)C[C@]2(C)[C@@]1(O)C(=O)COC(=O)NCc1ccccc1NC(=O)[C@@H](N)Cc1ccccc1.Cl [Compound 23],,,"half-life at 5 μM [2, 10]: > 4 h; half-life at 5 μM [3]: > 4 h"
CC(NC(=O)[C@@H](N)Cc1ccccc1)c1cscc1C(=O)OCC(=O)[C@@]1(O)[C@H](C)C[C@H]2[C@@H]3CCC4=CC(=O)C=C[C@]4(C)[C@@]3(F)[C@@H](O)C[C@@]21C (some centres unmarked) [Compound 36],> 4,> 4,
CC(C)[C@H](N)C(=O)Nc1ccc(C(=O)OCC(=O)[C@@]2(O)[C@H](C)C[C@H]3[C@@H]4CCC5=CC(=O)C=C[C@]5(C)[C@@]4(F)[C@@H](O)C[C@@]32C)cc1F [Compound 6],> 4,> 4,
CNC(C(=O)N1CCCC1C(=O)NCC(C)(C)C(C)C(=O)OCC(=O)[C@@]1(O)[C@H](C)C[C@H]2[C@@H]3CCC4=CC(=O)C=C[C@]4(C)[C@@]3(F)[C@@H](O)C[C@@]21C)C(C)C (some centres unmarked) [Compound 32],,,half-life at 10 μM [1]: 3.57 h
COc1cc(NC(=O)[C@@H](N)C(C)C)c(C(=O)OCC(=O)[C@@]2(O)[C@H](C)CC3[C@@H]4CCC5=CC(=O)C=C[C@]5(C)[C@@]4(F)[C@@H](O)C[C@@]32C)c(OC(C)C)c1 (some centres unmarked) [Compound 14],> 4,> 4,
COc1cc(N(C)C)cc(NC(=O)[C@H](Cc2ccccc2)N(C)C)c1C(=O)OCC(=O)[C@@]1(O)[C@H](C)CC2[C@@H]3CCC4=CC(=O)C=C[C@]4(C)[C@@]3(F)[C@@H](O)C[C@@]21C (some centres unmarked) [Compound 16],> 4,> 4,
C[C@@H]1CC2[C@@H]3CCC4=CC(=O)C=C[C@]4(C)[C@@]3(F)[C@@H](O)C[C@]2(C)[C@@]1(O)C(=O)COC(=O)c1cccc(F)c1NC(=O)[C@@H](N)Cc1ccccc1.Cl (some centres unmarked) [Compound 7],,,"Chemical Stability, pH 4.5 [5]: Yes; Chemical Stability, pH 7.4 [5]: Yes"
CC(NC(C)[C@@H](N)C(C)C)c1cscc1C(=O)OCC(=O)[C@@]1(O)[C@H](C)C[C@H]2[C@@H]3CCC4=CC(=O)C=C[C@]4(C)[C@@]3(F)[C@@H](O)C[C@@]21C (some centres unmarked) [Compound 35],> 4,> 4,
"C[C@@H]1C[C@H]2[C@@H]3CCC4=CC(=O)C=C[C@]4(C)[C@@]3(F)[C@@H](O)C[C@]2(C)[C@@]1(O)C(=O)COC(=O)[C@@H]1CCCN1 [Comparative Compound 3, reference compound]",,0.417,
CC(NNC(=O)C1CCCN1)C(C)C(=O)OCC(=O)[C@@]1(O)[C@H](C)C[C@H]2[C@@H]3CCC4=CC(=O)C=C[C@]4(C)[C@@]3(F)[C@@H](O)C[C@@]21C (some centres unmarked) [Compound 28],2.45,> 4,
CC(C)C(N)C(=O)N1CCCC1C(=O)NCC1(CC(=O)OCC(=O)[C@@]2(O)[C@H](C)C[C@H]3[C@@H]4CCC5=CC(=O)C=C[C@]5(C)[C@@]4(F)[C@@H](O)C[C@@]32C)CC1 (some centres unmarked) [Compound 34],> 4,> 4,
CC(C)C(N)C(=O)N1CCCC1C(=O)NCC(C)(C)C(C)C(=O)OCC(=O)[C@@]1(O)[C@H](C)C[C@H]2[C@@H]3CCC4=CC(=O)C=C[C@]4(C)[C@@]3(F)[C@@H](O)C[C@@]21C (some centres unmarked) [Compound 31],> 4,> 4,"Chemical stability [5]: Yes; Rat plasma stability ([2]; 5 μM): >240; RLM [6]: 63; Lung/Plasma % of Dex [7]: 74% and 100% and 78%; Permeability A-B [8]: A-B = 0.065 × 10^−6, cm/s; Permeability B-A [8]: B-A = 11 × 10^−6, cm/s; half-life at 10 μM [1]: 2.78 h"
COc1cc(NC(=O)[C@@H](N)C(C)C)c(C(=O)OCC(=O)[C@@]2(O)[C@H](C)CC3[C@@H]4CCC5=CC(=O)C=C[C@]5(C)[C@@]4(F)[C@@H](O)C[C@@]32C)c(OC)c1 (some centres unmarked) [Compound 11],> 4,> 4,
CC(C)[C@H](N)C(=O)Nc1ccc(C(=O)OCC(=O)[C@@]2(O)[C@H](C)C[C@H]3[C@@H]4CCC5=CC(=O)C=C[C@]5(C)[C@@]4(F)[C@@H](O)C[C@@]32C)cc1 [Compound 1],,> 4,
CC(CC(=O)OCC(=O)[C@@]1(O)[C@H](C)C[C@H]2[C@@H]3CCC4=CC(=O)C=C[C@]4(C)[C@@]3(F)[C@@H](O)C[C@@]21C)c1ccccc1NC(=O)[C@@H](N)C(C)C.Cl (some centres unmarked) [Compound 18],,,GR Binding Data [9]: 46%
COc1cc(N(C)C)cc(NC(=O)[C@@H](N)Cc2ccccc2)c1C(=O)OCC(=O)[C@@]1(O)[C@H](C)CC2[C@@H]3CCC4=CC(=O)C=C[C@]4(C)[C@@]3(F)[C@@H](O)C[C@@]21C (some centres unmarked) [Compound 15],> 4,> 4,
COc1cc(Br)c(C(=O)OCC(=O)[C@@]2(O)[C@H](C)CC3[C@@H]4CCC5=CC(=O)C=C[C@]5(C)[C@@]4(F)[C@@H](O)C[C@@]32C)c(NC(=O)[C@@H](N)C(C)C)c1 (some centres unmarked) [Compound 13],> 4,> 4,
"C[C@@H]1C[C@H]2[C@@H]3CCC4=CC(=O)C=C[C@]4(C)[C@@]3(F)[C@@H](O)C[C@]2(C)[C@@]1(O)C(=O)CO [Dexamethasone, reference compound]",,,GR Binding Data [9]: 85%
CC(C)[C@H](N)C(=O)Nc1ccc([C@H](C)NC(=O)OCC(=O)[C@@]2(O)[C@H](C)C[C@H]3[C@@H]4CCC5=CC(=O)C=C[C@]5(C)[C@@]4(F)[C@@H](O)C[C@@]32C)cc1 [Compound 24],> 4,> 4,
CC(C)[C@H](N)C(=O)NCCc1cscc1C(=O)OCC(=O)[C@@]1(O)[C@H](C)C[C@H]2[C@@H]3CCC4=CC(=O)C=C[C@]4(C)[C@@]3(F)[C@@H](O)C[C@@]21C [Compound 37],> 4,> 4,
"CC(C)C(N)C(=O)OCC(=O)[C@@]1(O)[C@H](C)C[C@H]2[C@@H]3CCC4=CC(=O)C=C[C@]4(C)[C@@]3(F)[C@@H](O)C[C@@]21C (some centres unmarked) [Comparative Compound 1, reference compound]",,2.88,
COc1cc(NC(=O)[C@@H](N)Cc2ccccc2)c(C(=O)OCC(=O)[C@@]2(O)[C@H](C)CC3[C@@H]4CCC5=CC(=O)C=C[C@]5(C)[C@@]4(F)[C@@H](O)C[C@@]32C)c(OC)c1 (some centres unmarked) [Compound 12],> 4,> 4,
CC(C)[C@H](N)C(=O)Nc1cscc1CC(=O)OCC(=O)[C@@]1(O)[C@H](C)C[C@H]2[C@@H]3CCC4=CC(=O)C=C[C@]4(C)[C@@]3(F)[C@@H](O)C[C@@]21C.Cl [Compound 38],,,"Chemical Stability, pH 4.5 [5]: Yes; Chemical Stability, pH 7.4 [5]: Yes; half-life at 5 μM [2, 10]: > 4 h; half-life at 5 μM [3]: > 4 h"
